pIC50: −log10 of the molar value.
Legend:
normal volunteers = assay: APD125 Phase 1 trials / afternoon nap model of insomnia in normal volunteers; format: in vivo, human
From the text: APD125, a potent and selective 5-HT2A serotonin receptor inverse agonist is a member of the genus disclosed in the European Patent EP1558582. […] These effects occurred at the expense of REM sleep. Sleep onset latency was not decreased by APD125.

diabetic rats = conditions: cited from earlier work
[1] = molecular target: human 5-HT2A serotonin receptor (Homo sapiens (Human), UniProt P28223); conditions: 0.5 nM [125I]DOI, COS7 membranes with recombinant human 5-HT2A; read-out: IC50 DOI Binding Assay
[2] = system: DOI-induced hypolocomotion in rats; assay: Attenuation of DOI-induced hypolocomotion in rats; format: in vivo, rat; conditions: male Sprague-Dawley rats, compound 1-10 mg/kg p.o., DOI 1 mg/kg s.c.
Method: In this example, compounds of the invention were tested for inverse agonist activity by determining whether these compounds could attenuate DOI-induced hypolocomotion in rats in a novel environment. DOI is a potent 5-HT2A/2C receptor agonist that crosses the blood-brain barrier. The standard protocol used is described briefly below.
Male Sprague-Dawley rats weighing between 200-350 g were used for all tests. Rats were housed three to four per cage.
(R)-DOI HCl (C11H16INO2.HCl) was obtained from Sigma-Aldrich and was dissolved in 0.9% saline. Compounds of the invention were synthesized at Arena Pharmaceuticals Inc., San Diego, Calif. and were dissolved in 100% PEG400. DOI was injected s.c. in a volume of 1 mL/kg, while compounds of the invention were administered p.o. in a volume of 1 mL/kg.
The “Motor Monitor” (Hamilton-Kinder, Poway, Calif.) was used for all activity measurement. This apparatus recorded rears using infrared photobeams. […]
In determining the effects of compounds of the invention on DOI-induced hypoactivity, animals were first injected with vehicle or the compound of the invention (1-10 mg/kg) in their home cages. […] Ten minutes after DOI administration, animals were placed into the activity apparatus and rearing activity was measured for 10 min.
Results (total rears over 10 min) were analyzed by t-test. […]

[3] = system: DOCA-salt induced hypertension in rats; conditions: cited from earlier work
[4] = system: spontaneously hypertensive rats; conditions: cited from earlier work
glaucoma patients = conditions: cited from earlier work
heatstroke = conditions: in vivo; cited from earlier work
JC virus = conditions: cited from earlier work
diabetic nephropathy = conditions: patients, 24 months of treatment; cited from earlier work
humans = conditions: sciatica from lumbar disc herniation; cited from earlier work
rats = conditions: thermal induced pain i.p., inflammatory pain intrathecal or i.p.; cited from earlier work

COc1ccc(NC(=O)Nc2ccc(F)cc2F)cc1-c1c(Br)cnn1C [APD125]
effect on waking EEG (normal volunteers; Phase 1 trials, maximal effects at 40-80 mg): vigilance-lowering effects
microarousals, sleep stage shifts and awakenings after sleep onset (normal volunteers; afternoon nap model): decreased microarousals, the number of sleep stage shifts and number of awakenings after sleep onset
slow wave sleep and associated parameters (normal volunteers; afternoon nap model of insomnia, normal volunteers): increased slow wave sleep and associated parameters in a dose-dependent manner
sleep onset latency (normal volunteers; afternoon nap model, normal volunteers): not decreased

O=CN1CCC(C(=O)NCCN2CCC(=C3c4ccccc4C=Cc4ccccc43)CC2)CC1 [AT-1015]
correction of a 19.8% sciatic motor conduction deficit (diabetic rats): 82.6-99.7%

O=C(c1cccn2cc(-c3ccccc3)nc12)N1CCN(CCc2ccc(F)cc2)CC1 [Compound 9, (4-(4-Fluorophenethyl)piperazin-1-yl)(2-phenylimidazo[1,2-α]pyridin-8-yl)methanone]
pIC50 [1]: 7.34

O=C(c1cccn2ccnc12)N1CCN(CC(F)c2ccc(F)cc2)CC1 (stereo not drawn) [Compound 10, (4-(2-Fluoro-2-(4-fluorophenyl)ethyl)piperazin-1-yl)(imidazo[1,2-α]pyridin-8-yl)methanone]
pIC50 [1]: 8.00

O=C(c1cccn2ccnc12)N1CCN(CCc2ccccc2F)CC1 [Compound 18, (4-(2-Fluorophenethyl)piperazin-1-yl)(imidazo[1,2-α]pyridin-8-yl)methanone]
attenuation of DOI-induced hypolocomotion (total rears over 10 min) [2]: attenuated DOI-induced hypolocomotion

O=C(c1cccn2ccnc12)N1CCN(CCc2ccc(Cl)cc2Cl)CC1 [Compound 19, (4-(2,4-Dichlorophenethyl)piperazin-1-yl)(imidazo[1,2-α]pyridin-8-yl)methanone]
attenuation of DOI-induced hypolocomotion (total rears over 10 min) [2]: attenuated DOI-induced hypolocomotion

CN1CCN2c3ccccc3Cc3ccccc3C2C1 (stereo not drawn) [Mainserin]
DOCA-salt induced hypertension [3]: prevent DOCA-salt induced hypertension

O=C(c1ccc(F)cc1)C1CCN(CCn2c(=O)[nH]c3ccccc3c2=O)CC1 [ketanserin]
blood pressure [4]: stabilize blood pressure
intra ocular pressure (IOP) (glaucoma patients): significantly lower IOP
protection during heatstroke (heatstroke): protect against circulatory shocks, intracranial hypertension and cerebral ischemia during heatstroke
JC virus infection of human glial cells (JC virus): inhibited JC virus infection of human glial cells

Cc1nc2sccn2c(=O)c1CCN1CCC(=C(c2ccc(F)cc2)c2ccc(F)cc2)CC1 [ritanserin]
correction of a 19.8% sciatic motor conduction deficit (diabetic rats): 82.6-99.7%
JC virus infection of human glial cells (JC virus): inhibited JC virus infection of human glial cells

COc1cccc(CCc2ccccc2OCC(CN(C)C)OC(=O)CCC(=O)O)c1 (stereo not drawn) [sarpogrelate]
urinary albumin excretion level (diabetic nephropathy): significantly reduced
treatment of lower back pain, leg pain and numbness (humans): effective treatment
correction of a 19.8% sciatic motor conduction deficit (diabetic rats): 82.6-99.7%
analgesic effect (rats): significant analgesic effect
intra ocular pressure (IOP) (glaucoma patients): significantly lower IOP

Reference: US9567327B2, “Imidazo[1,2-a]pyridine derivatives as modulators of the 5-HT2A serotonin receptor useful for the treatment of disorders related thereto” (Arena Pharmaceuticals, Inc., priority 2007, dated 2017)
